In PubChem BioAssay (NCI) one finds GI50 and TGI data, which are given here for eight compounds.

SMILES strings stand for the structures.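 Each compound was tested at five concentrations against cells in 96-well plates for 48 hours. Abbreviation: GI50, concentration required for 50% inhibition of growth. TGI is the concentration that stops growth completely.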

Common to all, as to test: NCI anticancer screen, dose series, 48 h
Experiment [1] deals with ACHN renal.
For experiment [2], the system named is RXF 393 renal.
In experiment [3] the test system is SK-OV-3 ovarian.
Experiment [4] concerns 786-0 renal.
Experiment [5] has as its system SN12C renal.
The test system of experiment [6] is UACC-62 melanoma.
The test system of experiment [7] is PC-3 prostate.
In experiment [8] the test system is SR leukemia.
Experiment [9] deals with K-562 leukemia.
Experiment [10] deals with NCI-H23 lung.

As to `NC(=NCCCOc1ccc(Cl)cc1)Nc1ccc(C(F)(F)F)cc1`, the GI50 in experiment [1] was 2.27 µM; in [2], 1.42 µM; in experiment [3] it was 4.68 µM; in experiment [4], 1.65 µM; in experiment [5] it was 3.07 µM; in experiment [6], 1.81 µM. In addition, the GI50 was 1.67 µM in experiment [7], 1.77 µM in [8], 1.76 µM in experiment [9] and 2.06 µM in [10]. For the same compound, the TGI in experiment [1] amounted to 7.03 µM; in [2] it was 5.52 µM; in [3], 18.1 µM; in experiment [4], 4.32 µM; in experiment [5], 14.2 µM; in experiment [6] it was 3.61 µM. Moreover, the TGI in experiment [7] amounted to 5.25 µM; in experiment [8], 5.95 µM; in experiment [9] it was 5.6 µM; in [10], 5.54 µM.
In the case of `C[As](C)SC1OC(CO)C(O)C1O` (stereo not given), the GI50 in [1] was 0.257 µM; in [2] it was 0.176 µM; in [3] it was 6.42 µM; in [4], 0.174 µM; in experiment [5], 0.312 µM; in [6], 0.385 µM. Moreover, the GI50 in experiment [7] is 0.656 µM; in experiment [8] it was 0.213 µM; in experiment [9], 0.131 µM; in experiment [10] it was 0.61 µM. In addition, the TGI in experiment [1] was found to be 1.03 µM; in experiment [2], 2.37 µM; in experiment [3], 22.4 µM; in [4], 0.655 µM; in [5], 1.52 µM; in experiment [6], 1.54 µM. In addition, the TGI in experiment [7] was determined as 9.79 µM; in experiment [8], 3.13 µM; in experiment [9], 2.03 µM; in [10], 3.89 µM.
Regarding `O=S(=O)([O-])c1ccc2c(c1)-c1nc-2nc2[n-]c(nc3nc(nc4[n-]c(n1)c1ccc(S(=O)(=O)[O-])cc41)-c1cc(S(=O)(=O)[O-])ccc1-3)c1ccc(S(=O)(=O)[O-])cc21.[Cu+2].[Na+]`, the GI50 in experiment [1] was more than 74.3 µM; in experiment [2], 49.4 µM; in experiment [3] it was 97.9 µM; in experiment [4] it was more than 44 µM; in experiment [5], more than 100 µM; in experiment [6], 21.7 µM. The GI50 was 9.44 µM in experiment [7], 11.2 µM in experiment [8], 0.749 µM in experiment [9] and 98.4 µM in experiment [10]. In addition, the TGI in experiment [1] is more than 100 µM; in [2] it was more than 100 µM; in experiment [3], more than 100 µM; in [4], more than 69.6 µM; in experiment [5], more than 100 µM; in experiment [6] it was more than 100 µM. Moreover, the TGI in experiment [7] is more than 100 µM; in experiment [8], more than 100 µM; in [9] it was more than 50.3 µM; in experiment [10], more than 100 µM.
With `CC(C)(C)OC(=O)NCC(O)CNC(=O)OC(C)(C)C`, the TGI in [1], in [2], in [3], in experiment [4], in experiment [5] and in experiment [6] was more than 100 µM in each case. Further, the TGI in [7], in [8], in experiment [9] and in experiment [10] was more than 100 µM each time.
In the case of `CCN1CCN(c2ccc(Nc3cc(N(C)C(=O)Nc4c(Cl)c(OC)cc(OC)c4Cl)ncn3)cc2)CC1`, the GI50 in experiment [1] is 2.18 µM; in [2] it was 1.13 µM; in experiment [3], 8.02 µM; in experiment [4], 1.88 µM; in [5], 2.62 µM; in experiment [6], 1.66 µM. The GI50 in [7] was 3.52 µM; in [8], 2.02 µM; in experiment [9] it was 2.09 µM; in experiment [10], 4.35 µM. The TGI came out at 13.6 µM in experiment [1]; 2.72 µM in [2]; 20.8 µM in [3]; 4.27 µM in experiment [4]; 11 µM in experiment [5]; 3.14 µM in [6]. Besides, the TGI was found to be 19.2 µM in experiment [7], 4.63 µM in experiment [8], 5.5 µM in [9] and 44.6 µM in experiment [10].
`C=C(F)C(=O)N1CCN(c2nc(OC[C@@H]3CCCN3C)nc3c2CCN(c2cccc4cccc(Cl)c24)C3)C[C@@H]1CC#N`: the GI50 in experiment [1] is 0.962 µM; in [2], 1.29 µM; in [3], 2.17 µM; in experiment [4], 0.769 µM; in [5] it was 1.31 µM; in [6], 1.66 µM. For the same compound, the GI50 in experiment [7] was 0.855 µM; in experiment [8], 0.657 µM; in experiment [9], 0.421 µM; in experiment [10] it was less than 0.01 µM. For the same compound, the TGI in experiment [1] was determined as 2.58 µM; in [2] it was 2.66 µM; in experiment [3] it was 4.94 µM; in [4], 2.09 µM; in experiment [5], 2.83 µM; in [6], 3.25 µM. Moreover, the TGI in [7] worked out at 2.44 µM; in experiment [8], 2.6 µM; in [9], 1.84 µM; in [10] it was 1.58 µM.
As to `O=C(CCCn1ccnc1[N+](=O)[O-])NCCn1cncc1[N+](=O)[O-]`, the TGI in [1], in [2], in experiment [3], in [4], in experiment [5] and in [6] was more than 100 µM each time. Moreover, the TGI in [7], in [8], in experiment [9] and in experiment [10] was more than 100 µM each time.
Regarding `CC(C)c1ccc(Nc2ccc3c(OCCCN4CCN(C)CC4)cccc3n2)cc1`, the GI50 in experiment [1] is 12.6 µM; in experiment [2], 7.28 µM; in [3] it was 15.7 µM; in [4], 11.4 µM; in [5] it was 15.6 µM; in experiment [6] it was 2.17 µM. Besides, the GI50 in [7] is 12.9 µM; in experiment [8] it was 2.85 µM; in [9] it was 2.05 µM; in experiment [10], 11.9 µM. For the same compound, the TGI in experiment [1] turned out to be 28 µM; in experiment [2], 22.4 µM; in [3], 31.2 µM; in experiment [4] it was 27 µM; in experiment [5] it was 31.9 µM; in experiment [6] it was 4.86 µM. For the same compound, the TGI came to 31.4 µM in [7], 10.7 µM in experiment [8], 4.48 µM in experiment [9] and 26.1 µM in [10].
